The results in this text go back to US20120316192A1, “SUBSTITUTED INDOLO [2,3-A] QUINOLIZINES” (priority 2011, published 2012).

The test system of one data set is HeLa cells. As to the kind of experiment: FACS analysis of the cell cycle (propidium iodide DNA content). The data set is classed as cell-based, human. The note with it: 1 μM nocodazole, 24 h after treatment. The method, then: HeLa human cervical carcinoma cell line, the human breast cancer cell line MCF7, and the human colorectal carcinoma cell line SW480 were maintained in Dulbecco's Modified Eagle's medium (DMEM, PAA, Pasching Austria). The colorectal cell line HT29 was cultured in McCoy's 5A medium (PAA, Pasching, Austria). DMEM medium was supplemented with 10% fetal calf serum, sodium pyruvate, non-essential amino acids, penicillin and streptomycin, McCoy's 5A medium was supplemented with 10% fetal calf serum, penicillin and streptomycin. All cell lines were cultured at 37° C. in a 5% CO2 humidified atmosphere. Further, fluorescent activated cell sorting (FACS) was used successfully to analyze the cell cycle and mitotic arrest under the influence of indoloquinolizines. HeLa cells were fixed and stained for FACS analysis 24 h after compound treatment. Cells were trypsinized and combined with any floating cells, pelleted, and resuspended in 1 ml PBS. Ice cold ethanol (70%) was added, and samples were incubated at −20° C. until analysis. After fixation the cells were pelleted, resuspended in 500 μl staining solution (50 μg/ml propidium iodide, 0.1 mg/ml RNase A, 0.05% Triton X-100) and incubated for 40 min at 37° C. 3 ml PBS were added; the cells were pelleted again and resuspended in 500 μl PBS. The DNA content was measured with a Becton Dickinson LSRII and analyzed with FlowJo 7.5 software. The cell cycle of compound treated HeLa cells was analyzed by fluorescence activated cell sorting (FIG. 1). […] A similar distribution is given in (−)-1-01 treated cells (FIGS. 1c and 1d); here 9% are in G1 and 38% in G2/M phase (25 μM) respectively; 8% in G1 and 40% in G2/M phase (50 μM). This means that the mitotic index is increased by more than two fold (from 0.16 to 0.38 respectively 0.40), indicating a mitotic arrest after compound treatment.
With `COC(=O)Nc1nc2ccc(C(=O)c3cccs3)cc2[nH]1` [nocodazole, reference compound], the “cells in G1 phase” value is given as 4% and the “cells in G2/M phase” value is recorded as 40%.

In the next data set the test system is all cell lines but Saos2. As to the kind of experiment: Apo-ONE homogeneous caspase-3/7 assay (apoptosis), summary statement. In kind it is cell-based. The note with it: all cell lines but Saos2, 42 h. The method, then: HeLa human cervical carcinoma cell line, the human breast cancer cell line MCF7, the African green monkey kidney cell line BS-C-1 and the human colorectal carcinoma cell lines HCT116 and SW480 were maintained in Dulbecco's Modified Eagle's medium (DMEM, PAA, Pasching Austria). The colorectal cell line HT29 was cultured in McCoy's 5A medium (PAA, Pasching, Austria). The prostate carcinoma cells PC3 and the osteosarcoma cells Saos2 were cultured in RPMI medium (PAA, Pasching Austria). All media were supplemented with 10% fetal calf serum, L-glutamine, penicillin and streptomycin. All cell lines were maintained at 37° C. in a 5% CO2 humidified atmosphere.
Therefore we measured the caspase-3/7 activity in different cell lines with the Apo-ONE® homogeneous caspase-3/7 assay.
Caspase-3/7 activities were determined using the Apo-ONE® homogeneous caspase-3/7 assay (Promega, Mannheim Germany) according to the manufacturer's protocol. Briefly, cells were plated in quadruplicates in 384-well cell culture plate. After 24 hours cells were exposed for 42 hours to the compounds at different concentrations. Control cells were treated with 0.5% DMSO or staurosporine (STS). Subsequently cells were lysed with a lysis buffer containing the caspase-3/7 substrate Z-DEVD-R110 and were incubated at room temperature until further analysis. The fluorescence was detected with the TECAN Inifinite® M200 plate reader at excitation/emission wavelength 485/520 nm. The blank value was subtracted from each value and the relative caspase-3/7 activity was calculated compared to the DMSO treated cells.
These findings correlate with our results from the cell viability assays for these indoloquinolizine.
For `COC(=O)C1=CC(C(=O)c2ccccc2O)=CN2CCc3c([nH]c4ccccc34)C12C(=O)OC` (single isomer, unassigned; (+)) [(+)-1-01, Dimethyl-3-(2-hydroxybenzoyl)-6,7,12,12b-tetrahydroindolo[2,3a]quinolizine-1,12b-dicarboxylate], the “impact on the apoptosis” value is listed as “did not have any impact on the apoptosis”.

For `COC(=O)C1=CC(C(=O)c2ccccc2O)=CN2CCc3c([nH]c4ccc(OC)cc34)C12C(=O)OC` (single isomer, unassigned; (+)) [(+)-1-04, Dimethyl-3-(2-hydroxybenzoyl)-9-methoxy-6,7,12,12b-tetrahydro-indolo[2,3-a]quinolizine-1,12b-dicarboxylate], the “impact on the apoptosis” value was “did not have any impact on the apoptosis”.

Tested on in the next data set: not given
Test: not given
Settings: not given
With `COC(=O)C1=CC(C(=O)c2ccccc2O)=CN2CCc3c([nH]c4ccccc34)C12C(=O)OC` (centres unmarked), the melting point (usually the temperature, or range, at which the solid turns liquid) is 258 °C (dec.). `CCOC(=O)C1=CC(C(=O)c2ccccc2O)=CN2CCc3c([nH]c4ccccc34)C12C(=O)OCC` (centres unmarked) returned a melting point of 209 °C. For the compound `COC(=O)C1=CC(C(=O)c2ccccc2O)=CN2CCc3c([nH]c4ccc(OC)cc34)C12C(=O)OC` (centres unmarked), the melting point is 163 °C (dec.). For `COC(=O)C1=CC(C(=O)c2cc(Cl)ccc2O)=CN2CCc3c([nH]c4ccccc34)C12C(=O)OC` (centres unmarked), the melting point is 232 °C (dec.). Still for that read-out and setting: with `COC(=O)C1=CC(C(=O)c2cc(Br)ccc2O)=CN2CCc3c([nH]c4ccccc34)C12C(=O)OC` (centres unmarked) the figure was 220 °C (dec.).

For `COC(=O)C1=CC(C(=O)c2cc(C)ccc2O)=CN2CCc3c([nH]c4ccccc34)C12C(=O)OC` (centres unmarked), the melting point stood at 197 °C.

Consider `COC(=O)C1=CC(C(=O)c2cc(Cl)cc(Cl)c2O)=CN2CCc3c([nH]c4ccccc34)C12C(=O)OC` (centres unmarked), for which the melting point was 238.2 °C (dec.). `COC(=O)C1=CC(C(=O)c2cc(Br)cc(Br)c2O)=CN2CCc3c([nH]c4ccccc34)C12C(=O)OC` (centres unmarked) yielded a melting point of 131 °C. Same read-out and setting: the result for `COC(=O)C1=CC(C(=O)c2ccccc2OC)=CN2CCc3c([nH]c4ccccc34)C12C(=O)OC` (centres unmarked) reads 261 °C (dec.). On to `COC(=O)C1=CC(C(=O)c2ccccc2O)=CN2CCc3c([nH]c4ccc(O)cc34)C12C(=O)OC` (centres unmarked), for which the melting point was 180 °C (dec.). Still for that read-out and setting: with `COC(=O)C1=CC(C(=O)c2ccccc2O)=CN2CCc3c([nH]c4ccc(C)cc34)C12C(=O)OC` (centres unmarked) the figure was 175 °C; with `COC(=O)C1=CC(C(=O)c2ccccc2O)=CN2CCc3c([nH]c4ccc(Br)cc34)C12C(=O)OC` (centres unmarked), 182 °C; with `COC(=O)C1=CC(C(=O)c2c(O)cccc2OC)=CN2CCc3c([nH]c4ccccc34)C12C(=O)OC` (centres unmarked), 237 °C (dec.). `CCOC(=O)C1=CC(C(=O)c2cc(C)ccc2O)=CN2CCc3c([nH]c4ccccc34)C12C(=O)OCC` (centres unmarked) [Compound 1-03, Diethyl-3-(2-hydroxy-5-methylbenzoyl)-6,7,12,12b-tetrahydroindolo-[2,3-a]quinolizine-1,12b-dicarboxylate] registered a melting point of 208 °C. As for `COC(=O)C1=CC(C(=O)c2cc(Br)ccc2O)=CN2CCc3c([nH]c4ccc(OC)cc34)C12C(=O)OC` (centres unmarked) [Compound 1-05, Dimethyl-3-(5-bromo-2-hydroxybenzoyl)-9-methoxy-6,7,12,12b-tetrahydro-indolo[2,3-a]quinolizine-1,12b-dicarboxylate], the melting point was 197 °C (dec.). For `CCOC(=O)C1=CC(C(=O)c2ccccc2O)=CN2CCc3c([nH]c4ccc(OC)cc34)C12C(=O)OCC` (centres unmarked) [Compound 1-13, Diethyl-3-(2-hydroxybenzoyl)-9-methoxy-6,7,12,12b-tetrahydro-indolo[2,3-a]quinolizine-1,12b-dicarboxylate], the melting point was 212 °C. On the same count and under the same terms, with `CCOC(=O)C1=CC(C(=O)c2cc(Br)ccc2O)=CN2CCc3c([nH]c4ccccc34)C12C(=O)OCC` (centres unmarked) [Compound 1-14, Diethyl-3-(5-bromo-2-hydroxybenzoyl)-6,7,12,12b-tetrahydro-indolo[2,3-a]quinolizine-1,12b-dicarboxylate] the figure was 215 °C; with `CCOC(=O)C1=CC(C(=O)c2cc(C)ccc2O)=CN2CCc3c([nH]c4ccc(OC)cc34)C12C(=O)OCC` (centres unmarked) [Compound 1-16, Diethyl-3-(2-hydroxy-5-methylbenzoyl)-9-methoxy-6,7,12,12b-tetrahydroindolo[2,3-a]quinolizine-1,12b-dicarboxylate], 228 °C.

`CCOC(=O)C1=CC(C(=O)c2cc(Cl)c(C)cc2O)=CN2CCc3c([nH]c4ccccc34)C12C(=O)OCC` (centres unmarked) [Compound 1-18, Diethyl-3-(5-chloro-2-hydroxy-4-methylbenzoyl)-6,7,12,12b-tetrahydroindolo[2,3-a]quinolizine-1,12b-dicarboxylate] had a melting point of 196 °C. `CCOC(=O)C1=CC(C(=O)c2cc(Cl)ccc2O)=CN2CCc3c([nH]c4ccccc34)C12C(=O)OCC` (centres unmarked) [Compound 1-19, Diethyl-3-(5-chloro-2-hydroxybenzoyl)-6,7,12,12b-tetrahydro-indolo[2,3-a]quinolizine-1,12b-dicarboxylate] had a melting point of 216 °C. Still for that read-out and setting: the result for `CCOC(=O)C1=CC(C(=O)c2cc(Cl)ccc2O)=CN2CCc3c([nH]c4ccc(OC)cc34)C12C(=O)OCC` (centres unmarked) [Compound 1-20, Diethyl-3-(5-chloro-2-hydroxybenzoyl)-9-methoxy-6,7,12,12b-tetrahydroindolo[2,3-a]quinolizine-1,12b-dicarboxylate] reads 230 °C; that for `CCOC(=O)C1=CC(C(=O)c2cc(Br)ccc2O)=CN2CCc3c([nH]c4ccc(OC)cc34)C12C(=O)OCC` (centres unmarked) [Compound 1-22, Diethyl-3-(5-bromo-2-hydroxybenzoyl)-9-methoxy-6,7,12,12b-tetrahydroindolo[2,3-a]quinolizine-1,12b-dicarboxylate], 225 °C. `COC(=O)C1=CC(C(=O)c2ccc(OCc3ccccc3)c(C)c2O)=CN2CCc3c([nH]c4ccccc34)C12C(=O)OC` (centres unmarked) [Compound 1-23, Dimethyl 3-(4-(benzyloxy)-2-hydroxy-3-methylbenzoyl)-6,7,12,12b-tetrahydroindolo[2,3-a]quinolizine-1,12b-dicarboxylate] showed a melting point of 216 °C. Still for that read-out and setting: with `COC(=O)C1=CC(C(=O)c2ccccc2O)=CN2[C@H](C(=O)OC)Cc3c([nH]c4ccccc34)C12C(=O)OC` (stereo partly drawn) [Compound 1-28, (6S)-trimethyl 3-(2-hydroxybenzoyl)-6,7,12,12b-tetrahydroindolo[2,3-a]quinolizine-1,6,12b-tricarboxylate] the figure was 244 °C (dec.); with `CC(C)(C)OC(=O)C1=CC(C(=O)c2ccccc2O)=CN2CCc3c([nH]c4ccccc34)C12C(=O)OC(C)(C)C` (centres unmarked) [Compound 1-54, di-tert-butyl 3-(2-hydroxybenzoyl)-6,7,12,12b-tetrahydroindolo[2,3-a]quinolizine-1,12b-dicarboxylate], 237 °C (dec.).
